In publication PMC9269301, “Phytochemical Analysis, Antioxidant, Antimicrobial, and Cytotoxic Activity of Different Extracts of Xanthoparmelia stenophylla Lichen from Stara Planina, Serbia” (Plants, 2022):
Converted amounts (≈) assume the structure as drawn. Marks after values point to notes of the source that are not given here.

How the values were obtained:
[1] = Superoxide anion radical scavenging activity (NBT/NADH/PMS); type: biochemical; conditions: mean ± SD, triplicate
Protocol: All chemicals for the antioxidant activity test were purchased from Sigma Aldrich. All measurements were conducted in triplicate, and a Shimadzu UV-1800 spectrophotometer was used for all measurements during antioxidant activity experiments. The IC50 value was used for comparing different radical scavenging effects between investigated extracts, isolated compounds, and positive controls. […] [75] with modifications. […] To initiate the reaction, 0.1 mL of phenazine methosulfate (PMS) solution ([…] in 0.1 M phosphate buffer at pH 7.4) was added to each tube. The mixture was incubated at room temperature for 5 min, and then the absorbance was measured at 560 nm relative to the blank. Ascorbic acid, gallic acid, and Trolox were used as positive controls, and a decrease in absorbance indicated increased superoxide anion radical scavenging activity. […] Ac stands for absorbance of the control (which contains all reagents, except the tested extract or compound), and As is the absorbance of the sample.

[2] = Hydroxyl radical scavenging activity (2-deoxyribose); type: biochemical; conditions: mean ± SD, triplicate
Protocol: All chemicals for the antioxidant activity test were purchased from Sigma Aldrich. All measurements were conducted in triplicate, and a Shimadzu UV-1800 spectrophotometer was used for all measurements during antioxidant activity experiments. The IC50 value was used for comparing different radical scavenging effects between investigated extracts, isolated compounds, and positive controls. The ability to inhibit non-site-specific peroxidation mediated by hydroxyl radicals for […], and XSH was determined using the method previously described in the literature. During the experiment, in a reaction mixture that contained 500 μL of 5.6 mM 2-deoxy-D-ribose in KH2PO4-NaOH buffer (50 mM, pH 7.4), 100 μL of 1.0 mM aqueous ascorbic acid, 100 μL of 1.0 mM H2O2, and 200 μL of premixed solution of 100 μM FeCl3 and […] EDTA (1:1 v/v), 100 μL of extract dissolved in water was added. The tubes were vigorously shaken, vortexed, and incubated for 30 min at 50 °C. […] The mixture was vortexed again and heated in a water bath for 30 min at 50 °C. […] Ac stands for absorbance of the control (which contains all reagents, except the tested extract or compound), and As is the absorbance of the sample.

[3] = DPPH radical scavenging activity; type: biochemical; conditions: mean ± SD, triplicate
Protocol: All chemicals for the antioxidant activity test were purchased from Sigma Aldrich. All measurements were conducted in triplicate, and a Shimadzu UV-1800 spectrophotometer was used for all measurements during antioxidant activity experiments. The IC50 value was used for comparing different radical scavenging effects between investigated extracts, isolated compounds, and positive controls. […] [71] with certain modifications. […] The solution was prepared ex tempore and stored in a tinted bottle in the refrigerator until the experiments were performed. […] The reaction mixture was vortexed and allowed to incubate in the dark for one hour, after which the absorbance was measured at 517 nm relative to the blank. […] Ac stands for absorbance of the control (which contains all reagents, except the tested extract or compound), and As is the absorbance of the sample.

[4] = system: S. cerevisiae (isolate); assay: Microdilution with resazurin, antifungal; type: cell-based, Saccharomyces cerevisiae; conditions: Saccharomyces cerevisiae, antimycotics
Protocol: (§1) The tested methanol, acetone, and n-hexane extracts, as well as the component (usnic acid) of X. stenophylla, were dissolved in 10% dimethyl sulfoxide (DMSO) and then diluted into the nutrient liquid medium. DMSO was obtained from Acros Organics (Fair Lawn, NJ, USA). Resazurin was obtained from Alfa Aesar GmbH & Co. (KG, Karlsruhe, Germany).
(§2) The antimicrobial activity of the extracts and components was tested against 19 microorganisms. The experiment involved 15 strains of bacteria (i.e., 6 standard strains: Staphylococcus aureus ATCC 6538, Bacillus subtilis ATCC 6633, Proteus mirabilis ATCC 12453, Pseudomonas aeruginosa ATCC 27853, Klebsiella pneumoniae ATCC 70063, and Escherichia coli ATCC 25922; 9 isolates: Staphylococcus aureus, Escherichia coli, Salmonella enterica, Salmonella Typhimurium, Proteus mirabilis, Klebsiella pneumoniae, Pseudomonas aeruginosa, Bacillus subtilis, and Bacillus cereus). In addition, four fungal strains (i.e., two standard strains: Candida albicans ATCC 10231 and Aspergillus niger ATCC 16888; two isolates: Saccharomyces cerevisiae and Candida albicans) were tested. All isolates were a generous gift from the Institute of Public Health, Kragujevac. The other microorganisms were provided from the collection held by the Microbiology Laboratory Faculty of Science, University of Kragujevac.
(§3) The bacterial suspensions were prepared by the direct colony method. The turbidity of the initial suspension was adjusted using a densitometer (DEN-1, BioSan, Riga, Latvia). When adjusted to the turbidity of the 0.5 McFarland’s standard (Andrews, 2005) the bacteria suspension contained approximately 10^8 colony-forming units (CFU)/mL, and the suspension of yeast contained 10^6 CFU/mL; 1:100 dilutions of the initial suspension were additionally prepared in sterile 0.85% saline. The suspensions of fungal spores were prepared by gentle stripping of spores from slopes with growing mycelia. The resulting suspensions were 1:1000 diluted in sterile 0.85% saline.
Antimicrobial activity was tested by determining the minimum inhibitory concentrations (MICs) and minimum microbicidal concentrations (MBCs) using the microdilution plate method with resazurin [56]. The 96-well plates were prepared by dispensing 100 μL of Mueller–Hinton broth for bacteria and Sabouard broth for fungi into each well. A 10 μL aliquot from the stock solution of the tested extract or component was added to the first row of the plate. Then, two-fold serial dilutions were performed using a multichannel pipette. The obtained concentration range was from 10 to 0.08 mg/mL. The method is described in detail in [76]. […]
Minimum microbicidal concentrations were determined by plating 10 μL of samples from wells where no indicator color change or no mycelia growth was recorded on a nutrient agar medium. […]

[5] = system: C. albicans ATCC 10231; assay: Microdilution with resazurin, antifungal; type: cell-based, Candida albicans; conditions: Candida albicans, ATCC10231, antimycotics
Protocol: as §1, §2, §3
(§4) Antimicrobial activity was tested by determining the minimum inhibitory concentrations (MICs) and minimum microbicidal concentrations (MBCs) using the microdilution plate method with resazurin [56]. The 96-well plates were prepared by dispensing 100 μL of Mueller–Hinton broth for bacteria and Sabouard broth for fungi into each well. A 10 μL aliquot from the stock solution of the tested extract or component was added to the first row of the plate. Then, two-fold serial dilutions were performed using a multichannel pipette. The obtained concentration range was from 10 to 0.08 mg/mL. The method is described in detail in [76].
(§5) Each test included growth control and sterility control.
(§6) Minimum microbicidal concentrations were determined by plating 10 μL of samples from wells where no indicator color change or no mycelia growth was recorded on a nutrient agar medium. At the end of the incubation period, the lowest concentration with no growth (no colony) was defined as the minimum microbicidal concentration.

[6] = system: C. albicans (isolate); assay: Microdilution with resazurin, antifungal; type: cell-based, Candida albicans; conditions: Candida albicans, antimycotics
Protocol: as §1, §2, §3, §4, §5, §6

[7] = system: A. niger ATCC 16888; assay: Microdilution with resazurin, antifungal; type: cell-based, Aspergillus niger; conditions: Aspergillus niger, ATCC16888, antimycotics
Protocol: as §1, §2, §3, §4, §5, §6

[8] = system: S. enterica (isolate); assay: microbe, parasite or virus in culture; type: cell-based, Salmonella enterica; conditions: Salmonella enterica, S. enterica, antibiotics
Protocol: as §1, §2, §3, §4, §5, §6

[9] = system: S. Typhimurium (isolate); assay: Microdilution with resazurin, antibacterial; type: cell-based, Salmonella Typhimurium; conditions: Salmonella enterica, antibiotics
Protocol: as §1, §2, §3, §4, §5, §6

[10] = system: S. aureus ATCC 6538; assay: Microdilution with resazurin, antibacterial; type: cell-based, Staphylococcus aureus; conditions: Staphylococcus aureus, ATCC6538, antibiotics
Protocol: as §1, §2, §3, §4, §5, §6

[11] = system: S. aureus (isolate); assay: Microdilution with resazurin, antibacterial; type: cell-based, Staphylococcus aureus; conditions: Staphylococcus aureus, antibiotics
Protocol: as §1, §2, §3, §4, §5, §6

[12] = system: B. subtilis ATCC 6633; assay: Microdilution with resazurin, antibacterial; type: cell-based, Bacillus subtilis; conditions: Bacillus subtilis, ATCC6633, antibiotics
Protocol: as §1, §2, §3, §4, §5, §6

[13] = system: B. subtilis (isolate); assay: Microdilution with resazurin, antibacterial; type: cell-based, Bacillus subtilis; conditions: Bacillus subtilis, antibiotics
Protocol: as §1, §2, §3, §4, §5, §6

[14] = system: B. cereus (isolate); assay: Microdilution with resazurin, antibacterial; type: cell-based, Bacillus cereus; conditions: Bacillus cereus, antibiotics
Protocol: as §1, §2, §3, §4, §5, §6

[15] = system: P. aeruginosa ATCC 27853; assay: Microdilution with resazurin, antibacterial; type: cell-based, Pseudomonas aeruginosa; conditions: Pseudomonas aeruginosa, ATCC27853, antibiotics
Protocol: as §1, §2, §3, §4, §5, §6

[16] = system: P. aeruginosa (isolate); assay: Microdilution with resazurin, antibacterial; type: cell-based, Pseudomonas aeruginosa; conditions: Pseudomonas aeruginosa, antibiotics
Protocol: as §1, §2, §3, §4, §5, §6

[17] = system: P. mirabilis (isolate); assay: Microdilution with resazurin, antibacterial; type: cell-based, Proteus mirabilis; conditions: Proteus mirabilis, antibiotics
Protocol: as §1, §2, §3, §4, §5, §6

[18] = system: P. mirabilis ATCC 12453; assay: Microdilution with resazurin, antibacterial; type: cell-based, Proteus mirabilis; conditions: Proteus mirabilis, ATCC12453, antibiotics
Protocol: as §1, §2, §3, §4, §5, §6

[19] = system: E. coli (isolate); assay: Microdilution with resazurin, antibacterial; type: cell-based, Escherichia coli; conditions: Escherichia coli, antibiotics
Protocol: as §1, §2, §3, §4, §5, §6

[20] = system: E. coli ATCC 25922; assay: Microdilution with resazurin, antibacterial; type: cell-based, Escherichia coli; conditions: Escherichia coli, ATCC25922, antibiotics
Protocol: as §1, §2, §3, §4, §5, §6

[21] = system: K. pneumoniae (isolate); assay: Microdilution with resazurin, antibacterial; type: cell-based, Klebsiella pneumoniae; conditions: Klebsiella pneumoniae, antibiotics
Protocol: as §1, §2, §3, §4, §5, §6

[22] = system: K. pneumoniae ATCC 70063; assay: Microdilution with resazurin, antibacterial; type: cell-based, Klebsiella pneumoniae; conditions: Klebsiella pneumoniae, ATCC70063, antibiotics
Protocol: as §1, §2, §3, §4, §5, §6

## Cc1c(C)c2c(c(C)c1O)CCC(C)(C(=O)O)O2 (centres unmarked) [Trolox, 6-hydroxy-2,5,7,8-tetramethylchroman-2-carboxylic acid]
[1]
  Superoxide Anion Radical Scavenging Activity (IC50): 135.14 ± 0.88 ^a,b,d,e,f µg/mL
[2]
  Hydroxyl Radical Scavenging Activity (IC50): 131.45 ± 0.56 ^c,e µg/mL
[3]
  DPPH Radical Scavenging Activity (IC50): 10.79 ± 0.83 ^a,b,c,d,e µg/mL

## OC(Cn1cncn1)(Cn1cncn1)c1ccc(F)cc1F [FC, fluconazole]
[4]; read-out: MFC
  MFC: 7.81 µg/mL (≈ 25.5 µM)
[4]; read-out: MIC
  MIC: 7.81 µg/mL (≈ 25.5 µM)
[5]; read-out: MFC
  MFC: 31.2 µg/mL (≈ 102 µM)
[5]; read-out: MIC
  MIC: 31.2 µg/mL (≈ 102 µM)
[6]; read-out: MFC
  MFC: 62.5 µg/mL (≈ 204 µM)
[6]; read-out: MIC
  MIC: 62.5 µg/mL (≈ 204 µM)
[7]; read-out: MFC
  MFC: 500 µg/mL (≈ 1630 µM)
[7]; read-out: MIC
  MIC: 250 µg/mL (≈ 816 µM)

## CC1(C)S[C@@H]2[C@H](NC(=O)[C@H](N)c3ccccc3)C(=O)N2[C@H]1C(=O)O [AMP, ampicillin]
[8]; read-out: MBC
  MBC: 1 µg/mL (≈ 2.86 µM)
[8]; read-out: MIC
  MIC: 1 µg/mL (≈ 2.86 µM)
[9]; read-out: MBC
  MBC: 2 µg/mL (≈ 5.72 µM)
[9]; read-out: MIC
  MIC: 2 µg/mL (≈ 5.72 µM)
[10]; read-out: MBC
  MBC: 0.75 µg/mL (≈ 2.15 µM)
[10]; read-out: MIC
  MIC: 0.25 µg/mL (≈ 0.715 µM)
[11]; read-out: MBC
  MBC: < 0.06 µg/mL
[11]; read-out: MIC
  MIC: < 0.06 µg/mL
[12]; read-out: MBC
  MBC: 4 µg/mL (≈ 11.4 µM)
[12]; read-out: MIC
  MIC: 3 µg/mL (≈ 8.59 µM)
[13]; read-out: MBC
  MBC: 128 µg/mL (≈ 366 µM)
[13]; read-out: MIC
  MIC: 16 µg/mL (≈ 45.8 µM)
[14]; read-out: MBC
  MBC: 6 µg/mL (≈ 17.2 µM)
[14]; read-out: MIC
  MIC: 4 µg/mL (≈ 11.4 µM)
[15]; read-out: MBC
  MBC: > 128 µg/mL
[15]; read-out: MIC
  MIC: > 128 µg/mL
[16]; read-out: MBC
  MBC: > 128 µg/mL
[16]; read-out: MIC
  MIC: > 128 µg/mL
[17]; read-out: MBC
  MBC: > 128 µg/mL
[17]; read-out: MIC
  MIC: > 128 µg/mL
[18]; read-out: MBC
  MBC: 4 µg/mL (≈ 11.4 µM)
[18]; read-out: MIC
  MIC: 4 µg/mL (≈ 11.4 µM)
[19]; read-out: MBC
  MBC: 1.2 µg/mL (≈ 3.43 µM)
[19]; read-out: MIC
  MIC: 2.1 µg/mL (≈ 6.01 µM)
[20]; read-out: MBC
  MBC: 0.5 µg/mL (≈ 1.43 µM)
[20]; read-out: MIC
  MIC: 0.37 µg/mL (≈ 1.06 µM)
[21]; read-out: MBC
  MBC: > 128 µg/mL
[21]; read-out: MIC
  MIC: > 128 µg/mL
[22]; read-out: MBC
  MBC: > 128 µg/mL
[22]; read-out: MIC
  MIC: > 128 µg/mL
